For one assay, the target named is FGFR1 (Homo sapiens, UniProt P11362). Briefly: Nanosyn in vitro kinase profiling: FGFR1. It counts as biochemical. Particulars: for inhibition at 1 µM: compound at 1 μM. How it is done: (§1) This was confirmed by in vitro profiling against a panel of kinases, with compound 2 only showing potent inhibition of EGFR and Ab1 (Table 2).
(§2) In vitro Kinome Screen. In vitro profiling of compound 2 at 100 nM was conducted by Nanosyn.

The target in the next assay is KDR (Homo sapiens, UniProt P35968). Nature of the assay: Nanosyn in vitro kinase profiling: KDR. It counts as biochemical. Particulars: for inhibition at 1 µM: compound at 1 μM. The method, then: as §1, §2
The target of the next assay is GSK-3-BETA (Homo sapiens, UniProt P49841). Briefly: Nanosyn in vitro kinase profiling: GSK-3-BETA. It counts as biochemical. Particulars: for inhibition at 1 µM: compound at 1 μM. The method, then: as §1, §2
A further assay deals with P38-ALPHA (Homo sapiens, UniProt Q16539). Nature of the assay: Nanosyn in vitro kinase profiling: P38-ALPHA. It counts as biochemical. The conditions noted are these: for inhibition at 1 µM: compound at 1 μM. How it is done:
as §1, §2

Another assay has as its target DYRK1A (Homo sapiens, UniProt Q13627). Nature of the assay: Nanosyn in vitro kinase profiling: DYRK1A. The assay is classed as biochemical. Particulars: for inhibition at 1 µM: compound at 1 μM. The method, then: as §1, §2
Another assay concerns the target T1, NEK2 (Homo sapiens, UniProt P51955).
T1 sequence (P51955 1-445): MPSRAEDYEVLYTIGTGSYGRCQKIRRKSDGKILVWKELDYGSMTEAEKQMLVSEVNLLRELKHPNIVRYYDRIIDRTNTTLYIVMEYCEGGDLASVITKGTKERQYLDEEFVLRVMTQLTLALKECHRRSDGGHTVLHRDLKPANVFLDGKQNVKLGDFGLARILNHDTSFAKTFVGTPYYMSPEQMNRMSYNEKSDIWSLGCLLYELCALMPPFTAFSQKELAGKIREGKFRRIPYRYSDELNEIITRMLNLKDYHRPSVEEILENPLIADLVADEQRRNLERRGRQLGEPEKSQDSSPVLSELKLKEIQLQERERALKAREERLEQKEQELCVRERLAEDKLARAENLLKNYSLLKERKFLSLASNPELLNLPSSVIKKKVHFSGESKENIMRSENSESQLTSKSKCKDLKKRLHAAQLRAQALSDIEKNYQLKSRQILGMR
Briefly: Nanosyn in vitro kinase profiling: NEK2. It counts as biochemical. The conditions noted are these: for inhibition at 1 µM: compound at 1 μM. The method, then:
as §1, §2

In the next assay the target is T2, ITK (Homo sapiens, UniProt Q08881).
T2 sequence (Q08881 1-620): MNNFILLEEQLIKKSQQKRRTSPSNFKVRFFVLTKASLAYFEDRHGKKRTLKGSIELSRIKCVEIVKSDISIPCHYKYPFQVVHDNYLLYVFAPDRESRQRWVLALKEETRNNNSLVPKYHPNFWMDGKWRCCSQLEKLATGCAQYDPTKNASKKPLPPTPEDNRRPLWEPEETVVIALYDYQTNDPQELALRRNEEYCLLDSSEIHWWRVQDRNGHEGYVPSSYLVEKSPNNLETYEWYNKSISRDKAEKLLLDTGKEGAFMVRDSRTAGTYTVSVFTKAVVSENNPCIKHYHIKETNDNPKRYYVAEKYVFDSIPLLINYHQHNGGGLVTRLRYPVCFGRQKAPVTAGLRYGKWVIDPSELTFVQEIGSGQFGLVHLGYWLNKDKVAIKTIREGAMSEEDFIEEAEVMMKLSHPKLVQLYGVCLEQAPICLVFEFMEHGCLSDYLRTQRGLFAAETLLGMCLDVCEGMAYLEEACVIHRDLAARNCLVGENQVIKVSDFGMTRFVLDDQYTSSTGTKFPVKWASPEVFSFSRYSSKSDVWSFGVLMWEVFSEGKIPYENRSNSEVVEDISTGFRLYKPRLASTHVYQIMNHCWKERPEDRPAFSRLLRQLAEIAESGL
Briefly: Nanosyn in vitro kinase profiling: ITK. The assay is classed as biochemical. The conditions noted are these: for inhibition at 1 µM: compound at 1 μM. The method, then:
as §1, §2

In a further assay the target is SYK (Homo sapiens, UniProt P43405). Nature of the assay: Nanosyn in vitro kinase profiling: SYK. Particulars: for inhibition at 1 µM: compound at 1 μM. It counts as biochemical. The method, then:
as §1, §2

In assay [1] the target is 2YF/3wt + NRG Ba/F3 cells (HER2YF/HER3wt) (Homo sapiens, UniProt P04626, Y1005F/Y1023F/Y1112F/Y1127F/Y1139F/Y1196F/Y1221F/Y1222F/Y1248F, cells depend on it). Nature of the assay: Ba/F3 proliferation assay, 2YF/3wt + NRG. It counts as cell-based. Put shortly:
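Ba/F3 cells stably expressing HER3 and HER2 with 9 C-terminal Tyr→Phe mutations, selected for NRG dependence after IL-3 withdrawal. Cells were given DMSO or compound plus NRG (50 ng/mL final); proliferation normalized to DMSO, fit by log(inhibitor) vs response with variable slope.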

The target in assay [2] is T3, 2YF-YVMA/3wt + NRG Ba/F3 cells (Homo sapiens, UniProt P04626, DUP772-775/Y1005F/Y1023F/Y1112F/Y1127F/Y1139F/Y1196F/Y1221F/Y1222F/Y1248F, cells depend on it).
T3 construct: reported HER2 oncogenic mutants in the HER2YF construct
Nature of the assay: Ba/F3 proliferation assay, 2YF-YVMA/3wt + NRG. The assay is classed as cell-based. How it is done: For the 2YF/3wt cells, the parental cells were first transduced with HER3 according to the protocol above and were then spun down at 500×g for 5 min and re-suspended in media supplemented with 10 ng/mL IL-3 and 3 μg/mL puromycin (Invitrogen). Cells were maintained in these conditions for seven days, passaging as required. After seven days the cells were spun down, washed with fresh media, and then used for a subsequent round of transduction according to the protocol above with HER2YF virus. […] The cells were maintained in these conditions for seven days, passaging as required. After seven days the cells were spun down, washed with fresh media, and then suspended in media supplemented with 10 ng/mL of NRG. Cells were maintained in these conditions for seven days to select for a NRG dependent population of 2YF/3wt Ba/F3 cells that were then maintained as described above. The same protocol was used for the 2YF-L755S/3wt, 2YF-YVMA/3wt, and 2YF-VC/3wt cell lines using the indicated constructs.
Proliferation Assays. […] The following day media was changed to fresh media that contained either DMSO or the indicated concentration of drug plus NRG (50 ng/mL final concentration) as indicated. […] For all normalized assays, proliferation was normalized to the DMSO control condition. […]

Where two headings read alike, the source gives them in different places.

Sequence of P38-ALPHA (Q16539 whole entry): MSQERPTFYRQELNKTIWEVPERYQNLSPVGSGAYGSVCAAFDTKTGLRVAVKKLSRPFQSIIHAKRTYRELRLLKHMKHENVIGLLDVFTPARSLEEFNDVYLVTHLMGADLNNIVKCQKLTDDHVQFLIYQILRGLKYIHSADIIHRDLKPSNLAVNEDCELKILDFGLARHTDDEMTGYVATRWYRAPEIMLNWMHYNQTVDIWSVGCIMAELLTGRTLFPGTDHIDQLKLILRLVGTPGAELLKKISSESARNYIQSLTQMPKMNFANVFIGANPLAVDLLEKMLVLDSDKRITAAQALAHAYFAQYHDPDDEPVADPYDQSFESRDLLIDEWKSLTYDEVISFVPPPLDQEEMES
Sequence of GSK-3-BETA (P49841 whole entry): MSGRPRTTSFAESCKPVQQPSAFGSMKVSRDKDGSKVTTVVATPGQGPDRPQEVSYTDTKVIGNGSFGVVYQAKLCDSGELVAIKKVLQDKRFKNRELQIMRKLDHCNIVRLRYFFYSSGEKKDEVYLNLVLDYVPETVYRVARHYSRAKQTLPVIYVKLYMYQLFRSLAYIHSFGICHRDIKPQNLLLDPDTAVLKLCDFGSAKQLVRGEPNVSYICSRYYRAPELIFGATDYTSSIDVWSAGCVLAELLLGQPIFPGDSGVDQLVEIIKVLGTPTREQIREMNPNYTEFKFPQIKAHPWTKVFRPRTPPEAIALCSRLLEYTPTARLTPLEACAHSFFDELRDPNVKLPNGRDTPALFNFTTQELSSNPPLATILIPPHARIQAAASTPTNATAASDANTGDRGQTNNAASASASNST
Sequence of KDR (P35968 20-1356): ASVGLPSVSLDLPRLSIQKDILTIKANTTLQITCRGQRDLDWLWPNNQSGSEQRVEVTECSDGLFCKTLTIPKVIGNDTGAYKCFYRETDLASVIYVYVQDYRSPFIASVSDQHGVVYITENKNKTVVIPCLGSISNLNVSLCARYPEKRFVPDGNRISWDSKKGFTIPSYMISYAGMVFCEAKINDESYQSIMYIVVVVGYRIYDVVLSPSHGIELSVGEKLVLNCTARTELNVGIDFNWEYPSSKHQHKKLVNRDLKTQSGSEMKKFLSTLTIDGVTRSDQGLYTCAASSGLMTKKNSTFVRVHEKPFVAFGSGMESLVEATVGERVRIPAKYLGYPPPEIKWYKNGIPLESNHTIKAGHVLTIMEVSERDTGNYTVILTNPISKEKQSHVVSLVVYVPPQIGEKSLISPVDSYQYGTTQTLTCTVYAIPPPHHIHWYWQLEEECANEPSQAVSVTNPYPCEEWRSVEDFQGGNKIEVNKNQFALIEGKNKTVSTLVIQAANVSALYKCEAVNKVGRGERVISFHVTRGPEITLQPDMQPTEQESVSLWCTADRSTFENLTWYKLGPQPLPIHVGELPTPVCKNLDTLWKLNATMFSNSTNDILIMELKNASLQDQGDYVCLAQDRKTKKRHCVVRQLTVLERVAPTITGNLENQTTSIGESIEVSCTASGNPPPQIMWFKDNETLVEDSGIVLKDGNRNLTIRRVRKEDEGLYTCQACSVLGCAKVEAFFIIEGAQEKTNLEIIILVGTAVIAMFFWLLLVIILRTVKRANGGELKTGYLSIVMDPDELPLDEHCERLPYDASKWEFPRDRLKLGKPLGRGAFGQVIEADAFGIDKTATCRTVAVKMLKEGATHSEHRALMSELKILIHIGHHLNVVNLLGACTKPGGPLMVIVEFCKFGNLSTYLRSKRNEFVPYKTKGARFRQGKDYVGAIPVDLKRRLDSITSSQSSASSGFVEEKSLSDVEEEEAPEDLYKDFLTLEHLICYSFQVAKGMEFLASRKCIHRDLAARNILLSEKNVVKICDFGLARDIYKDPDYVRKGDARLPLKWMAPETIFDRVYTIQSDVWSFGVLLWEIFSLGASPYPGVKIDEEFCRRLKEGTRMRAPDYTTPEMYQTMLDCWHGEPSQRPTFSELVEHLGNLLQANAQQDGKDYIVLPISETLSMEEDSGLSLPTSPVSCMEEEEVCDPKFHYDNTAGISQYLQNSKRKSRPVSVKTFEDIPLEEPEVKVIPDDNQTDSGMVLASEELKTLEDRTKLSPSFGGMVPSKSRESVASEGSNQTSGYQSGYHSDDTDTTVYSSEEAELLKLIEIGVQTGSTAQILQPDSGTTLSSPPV
Sequence of FGFR1 (P11362 22-822): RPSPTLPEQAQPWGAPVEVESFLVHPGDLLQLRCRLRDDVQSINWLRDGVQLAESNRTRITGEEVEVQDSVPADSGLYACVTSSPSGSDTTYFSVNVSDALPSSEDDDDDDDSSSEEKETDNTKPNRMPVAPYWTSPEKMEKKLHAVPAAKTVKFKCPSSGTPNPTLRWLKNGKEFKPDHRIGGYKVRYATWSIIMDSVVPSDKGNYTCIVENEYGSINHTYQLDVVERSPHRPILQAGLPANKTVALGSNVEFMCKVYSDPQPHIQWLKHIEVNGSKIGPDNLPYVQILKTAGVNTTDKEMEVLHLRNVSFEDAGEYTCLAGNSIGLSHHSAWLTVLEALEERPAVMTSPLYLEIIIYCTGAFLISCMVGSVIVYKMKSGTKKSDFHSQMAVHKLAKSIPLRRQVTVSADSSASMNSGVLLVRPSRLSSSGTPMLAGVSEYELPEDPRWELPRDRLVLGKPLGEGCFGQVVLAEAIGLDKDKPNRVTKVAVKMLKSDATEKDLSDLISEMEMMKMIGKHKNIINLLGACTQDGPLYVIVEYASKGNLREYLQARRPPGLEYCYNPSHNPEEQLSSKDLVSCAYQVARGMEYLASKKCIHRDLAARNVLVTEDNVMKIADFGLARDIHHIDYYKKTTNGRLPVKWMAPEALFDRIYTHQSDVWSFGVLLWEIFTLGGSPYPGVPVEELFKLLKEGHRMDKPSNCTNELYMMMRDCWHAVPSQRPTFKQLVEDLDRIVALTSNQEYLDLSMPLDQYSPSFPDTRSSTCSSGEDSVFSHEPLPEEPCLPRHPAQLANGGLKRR
Sequence of 2YF/3wt + NRG Ba/F3 cells (HER2YF/HER3wt) (P04626 whole entry Y1005F/Y1023F/Y1112F/Y1127F/Y1139F/Y1196F/Y1221F/Y1222F/Y1248F): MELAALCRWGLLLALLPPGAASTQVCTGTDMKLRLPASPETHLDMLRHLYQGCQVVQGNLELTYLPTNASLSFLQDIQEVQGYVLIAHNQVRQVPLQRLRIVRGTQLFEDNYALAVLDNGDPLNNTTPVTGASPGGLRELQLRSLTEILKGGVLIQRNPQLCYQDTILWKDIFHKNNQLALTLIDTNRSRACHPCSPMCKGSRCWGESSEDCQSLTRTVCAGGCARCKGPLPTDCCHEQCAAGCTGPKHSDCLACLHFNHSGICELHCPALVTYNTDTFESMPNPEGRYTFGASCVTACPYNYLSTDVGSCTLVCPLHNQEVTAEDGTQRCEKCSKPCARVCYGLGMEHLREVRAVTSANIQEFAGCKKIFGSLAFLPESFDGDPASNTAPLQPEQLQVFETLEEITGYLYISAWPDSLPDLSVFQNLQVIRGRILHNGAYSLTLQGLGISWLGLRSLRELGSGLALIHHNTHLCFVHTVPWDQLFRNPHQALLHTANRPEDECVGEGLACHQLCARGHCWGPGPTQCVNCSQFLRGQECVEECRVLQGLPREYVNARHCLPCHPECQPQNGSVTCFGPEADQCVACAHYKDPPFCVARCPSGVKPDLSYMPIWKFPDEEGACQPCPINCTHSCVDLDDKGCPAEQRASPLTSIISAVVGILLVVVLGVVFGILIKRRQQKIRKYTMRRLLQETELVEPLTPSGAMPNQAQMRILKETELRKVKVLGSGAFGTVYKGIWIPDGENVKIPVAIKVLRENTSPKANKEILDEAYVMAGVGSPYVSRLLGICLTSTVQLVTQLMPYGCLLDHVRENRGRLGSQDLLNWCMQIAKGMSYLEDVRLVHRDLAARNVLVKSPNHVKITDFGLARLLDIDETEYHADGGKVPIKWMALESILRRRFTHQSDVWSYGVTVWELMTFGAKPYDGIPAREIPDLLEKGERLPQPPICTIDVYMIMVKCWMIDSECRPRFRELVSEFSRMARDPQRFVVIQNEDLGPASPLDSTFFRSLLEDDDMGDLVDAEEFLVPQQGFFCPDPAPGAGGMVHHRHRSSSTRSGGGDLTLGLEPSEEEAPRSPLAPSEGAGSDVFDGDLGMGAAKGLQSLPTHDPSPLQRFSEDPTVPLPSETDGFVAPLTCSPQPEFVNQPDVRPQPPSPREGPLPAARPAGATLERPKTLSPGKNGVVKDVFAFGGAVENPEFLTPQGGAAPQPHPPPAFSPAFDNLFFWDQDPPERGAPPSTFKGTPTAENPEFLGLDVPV

As usually defined, the inhibition is the relative decrease from the control value, in per cent. On to `COc1ccc(-c2ccco2)cc1Nc1ncnc2[nH]nc(-c3ccco3)c12` [compound 2, 3-(furan-2-yl)-N-(5-(furan-2-yl)-2-methoxyphenyl)-1H-pyrazolo[3,4-d]pyrimidin-4-amine], for which the inhibition at 0.1 µM on FGFR1 (compound at 100 nM) is 48.3%; against KDR (compound at 100 nM) it was 27.3%; on GSK-3-BETA (compound at 100 nM), 20.5%; on P38-ALPHA (compound at 100 nM), 6.61%; against DYRK1A (compound at 100 nM) it was 5%; against NEK2 (compound at 100 nM) it was 1.53%. The inhibition at 0.1 µM against ITK (compound at 100 nM) was 1.24%; at SYK (compound at 100 nM), -2.12%. For the same compound, the inhibition at 1 µM was 86.3% against FGFR1; 71.3% at KDR; 68.8% on GSK-3-BETA; 12.9% against P38-ALPHA; 16.7% against DYRK1A; 2.98% against NEK2. Also, the figures for the inhibition at 1 µM on ITK and against SYK were 13.9% and -6.41%, respectively.
On to `COc1ccc(-c2ccoc2)cc1Nc1ncnc2[nH]cc(-c3cc[nH]n3)c12` [compound 3, N-(5-(furan-3-yl)-2-methoxyphenyl)-5-(1H-pyrazol-3-yl)-7H-pyrrolo[2,3-d]pyrimidin-4-amine], for which the GI50 was 6.8 ± 0.2 nM in assay [1] (Table 4; ± S.D., n = 3; 48 h Cell Titer Glo; read-out: IC50, 2YF/3wt + NRG) and 11.4 ± 0.1 nM in assay [2] (Table 4; ± S.D., n = 2; read-out: IC50, 2YF-YVMA/3wt + NRG). Moreover, the inhibition at 1 µM was 93% at FGFR1; 74% on KDR; 40% against GSK-3-BETA; 2% against P38-ALPHA; 41% against DYRK1A; -9% against NEK2. Also, the results for the inhibition at 1 µM against ITK and against SYK were 24% and 35%, respectively.
As to `CS(=O)(=O)CCNCc1ccc(-c2ccc3ncnc(Nc4ccc(OCc5cccc(F)c5)c(Cl)c4)c3c2)o1` [lapatinib], the GI50 in [1] (read-out: IC50, 2YF/3wt + NRG; Table 4; ± S.D., n = 3; 48 h Cell Titer Glo) is 63.6 ± 12.5 nM; in assay [2] (read-out: IC50, 2YF-YVMA/3wt + NRG; Table 4; ± S.D., n = 2) it was greater than 10000 nM.

Source of the values: patent US20190119284A1, “ErbB Inhibitors and Uses Thereof” (The Regents of the University of California, priority 2016, published 2019).
